# Reference: US12433903B2 (priority 2021, dated 2025)
# Legend:
# [1] = tested on: p-cMyc(S62), cMyc, p-AKT(S473), AKT, p-ERK(T202/Y204), ERK in SW620, HCT15, HCT116 cells; test: Target engagement by Western blot in colon cancer cell lines; type: cell-based; details: HCT 116 cells; 10-80 μM, 3 hours; with a dose effect
# Method: For Western blot, the compounds were tested at 4 concentrations for 3 hours on 3 colon cancer cell lines. The compounds, concentrations, colon cancer cell line panel, and antibodies panel tested are the following: • CBG: 0 μM, 10 μM, 20 μM, 40 μM, and 80 μM. • Compound 1: 0 μM, 10 μM, 20 μM, 40 μM, and 80 μM. • Compound 2: 0 μM, 10 μM, 20 μM, 40 μM, and 80 μM. • Colon cancer cell line panel: SW620, HCT15, HCT116 • Antibodies panel: p-cMYC(S62), cMyc, p-AKT(S473), AKT, p-ERK(T202/Y204), ERK Methods
# Evaluation of target engagement was performed to determine the expression of specific marker protein expression and underlying signaling pathways with Western blot.
# Western blot. Whole cell extracts were prepared by incubating cell pellets in IP lysis buffer supplemented with protease and phosphatase inhibitors (Roche). Isolated protein was quantified by Pierce BCA Protein assay (ThermoFisher). Equal quantities of protein were separated by 4-15% SDS-PAGE electrophoresis gels and transferred onto nitrocellulose membranes. Membranes was blocked with 5% nonfat milk in Tris-buffered saline-Tween buffer. […]
# rUGT1A9 = target: T1, rUGT1A9 (Homo sapiens, UniProt O60656); test: Inhibition of CBG glucuronidation by Compound 1, rUGT1A9; type: in vitro ADME; details: for CBG detected (CBG loss) / CBG detected, Percent of control / CBG glucuronide formed / CBG glucuronide formed, Percent of control: 4 min
# T1 sequence (O60656 26-530): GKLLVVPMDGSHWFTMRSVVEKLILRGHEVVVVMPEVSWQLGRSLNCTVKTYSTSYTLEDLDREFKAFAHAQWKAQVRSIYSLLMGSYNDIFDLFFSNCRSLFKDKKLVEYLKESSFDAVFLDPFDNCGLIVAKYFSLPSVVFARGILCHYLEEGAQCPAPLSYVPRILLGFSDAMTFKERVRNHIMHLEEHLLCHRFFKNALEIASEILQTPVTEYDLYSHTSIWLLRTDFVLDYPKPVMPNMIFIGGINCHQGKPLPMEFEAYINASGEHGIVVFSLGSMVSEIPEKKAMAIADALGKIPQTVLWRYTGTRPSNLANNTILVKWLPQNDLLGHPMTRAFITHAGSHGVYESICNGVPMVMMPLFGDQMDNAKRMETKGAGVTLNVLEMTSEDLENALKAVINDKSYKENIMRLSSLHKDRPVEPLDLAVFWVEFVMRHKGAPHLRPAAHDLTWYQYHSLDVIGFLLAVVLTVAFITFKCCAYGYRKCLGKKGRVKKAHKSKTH
# Method: The purpose of this experiment was to determine if Compound 1 can inhibit the glucuronidation of CBG, as both are substrates for the two major isoforms responsible for CBG glucuronidation.
# The ability of Compound 1 to inhibit the metabolism of CBG by UGT1A9 and UGT2B7 enzymes was investigated to ascertain the IC50 values for direct inhibition. The incubation conditions (substrate concentration, incubation time and protein concentration) were determined in Part 2 of the protocol such that CBG metabolism remains near initial rate conditions (e.g., 20-30% substrate loss).
# Preliminary experiments were conducted in Part I of the protocol, first to establish the HPLC/MS/MS bioanalytical methods for CBG and CBG glucuronide. […] The second set of preliminary experiments (Part 2), as mentioned, were conducted to optimize the incubation conditions as described above. Incubations (at 37° C.) contained Tris-HCl buffer (100 mM, pH 7.7), MgCl2 (10 mM), EDTA (1 mM, pH 7.4) and UDP-glucuronic acid (UDPGA, 10 mM). CBG was added to each incubation in DMSO such that the final percent of DMSO was 1% v/v, or less. Reactions were terminated by the addition of an equal volume of stop reagent, acetonitrile containing an internal standard. The samples were centrifuged (e.g., 920 RCF for 10 minutes at 10° C.), and the supernatant fractions were analyzed by LC-MS/MS to determine the amount of CBG remaining and formation of one metabolite (CBG glucuronide).
# To examine its ability to act as a direct inhibitor of the above listed enzymes, Compound 1 was be added to recombinant human UGT enzyme together with CBG. Reactions were initiated with UDPGA and were carried out in duplicate. For all assays, reactions were terminated by the addition of acetonitrile with or without 2% v/v formic acid, including the internal standard.
# Authentic metabolite reference standards were used for quantitation of the probe substrate metabolites and as internal standards. Based on the information obtained in the Part 2 experiments, the following table summarizes the experiments performed, assessing the inhibitory effects of Compound 1 was conducted as follows:
# The amounts of CBG present at the end of the incubation periods was determined. For inhibition to have occurred, the amounts of CBG present at the end of the incubation period needed to increase, and the amounts of glucuronide formed needed to decrease.
compound,measurement,setting,value
"CCCCCc1cc(O)c(C/C=C(\C)CCC=C(C)C)c(OC)c1 [Compound 1, (E)-2-(3,7-dimethylocta-2,6-dien-1-yl)-3-methoxy-5-pentylphenol]",pAKT(S473) (Western blot),[1],down-regulated
same,CBG detected (CBG loss),rUGT1A9; 10 μM CBG + 0.01 μM Compound 1,1250 pmol
same,"CBG detected, Percent of control",rUGT1A9; 10 μM CBG + 0.01 μM Compound 1,109
same,CBG glucuronide formed,rUGT1A9; 10 μM CBG + 0.01 μM Compound 1,350000 area ratio
same,"CBG glucuronide formed, Percent of control",rUGT1A9; 10 μM CBG + 0.01 μM Compound 1,94.4
same,CBG detected (CBG loss),rUGT1A9; 10 μM CBG + 0.03 μM Compound 1,1250 pmol
same,"CBG detected, Percent of control",rUGT1A9; 10 μM CBG + 0.03 μM Compound 1,110
same,CBG glucuronide formed,rUGT1A9; 10 μM CBG + 0.03 μM Compound 1,360000 area ratio
same,"CBG glucuronide formed, Percent of control",rUGT1A9; 10 μM CBG + 0.03 μM Compound 1,97.1
same,CBG detected (CBG loss),rUGT1A9; 10 μM CBG + 0.1 μM Compound 1,1280 pmol
same,"CBG detected, Percent of control",rUGT1A9; 10 μM CBG + 0.1 μM Compound 1,112
same,"CBG glucuronide formed, Percent of control",rUGT1A9; 10 μM CBG + 0.1 μM Compound 1,92.0
same,CBG detected (CBG loss),rUGT1A9; 10 μM CBG + 0.3 μM Compound 1,1300 pmol
same,"CBG detected, Percent of control",rUGT1A9; 10 μM CBG + 0.3 μM Compound 1,114
same,CBG glucuronide formed,rUGT1A9; 10 μM CBG + 0.3 μM Compound 1,350000 area ratio
same,"CBG glucuronide formed, Percent of control",rUGT1A9; 10 μM CBG + 0.3 μM Compound 1,94.4
same,CBG detected (CBG loss),rUGT1A9; 10 μM CBG + 1 μM Compound 1,1210 pmol
same,"CBG detected, Percent of control",rUGT1A9; 10 μM CBG + 1 μM Compound 1,106
same,"CBG glucuronide formed, Percent of control",rUGT1A9; 10 μM CBG + 1 μM Compound 1,92.6
same,CBG detected (CBG loss),rUGT1A9; 10 μM CBG + 3 μM Compound 1,1200 pmol
same,"CBG detected, Percent of control",rUGT1A9; 10 μM CBG + 3 μM Compound 1,105
same,"CBG glucuronide formed, Percent of control",rUGT1A9; 10 μM CBG + 3 μM Compound 1,93.6
same,CBG detected (CBG loss),rUGT1A9; 10 μM CBG + 10 μM Compound 1,1140 pmol
same,"CBG detected, Percent of control",rUGT1A9; 10 μM CBG + 10 μM Compound 1,99.8
same,"CBG glucuronide formed, Percent of control",rUGT1A9; 10 μM CBG + 10 μM Compound 1,92.8
same,metabolism of CBG in the presence of Compound 1 (in words),"rUGT1A9; 0.01-10 μM Compound 1, CBG disappearance or glucuronide formation",essentially unchanged
